Assay results: patent US7601713B2, “Kinase inhibitors and their uses” (Rigel Pharmaceuticals, Inc., priority 2005, dated 2009)
Where two headings read alike, the source gives them in different places.

Key:
Axl kinase = target: T1, Axl kinase (Homo sapiens, UniProt P30530); experiment: Phospho-Akt in-cell Western assay (Axl antibody cross-linking, Hela cells); type: cell-based; conditions: phospho-Akt readout, read-out: IC50, inhibition of Axl kinase
T1 construct: endogenous in cells; host or cells: HeLa cells
T1 sequence (P30530 26-894): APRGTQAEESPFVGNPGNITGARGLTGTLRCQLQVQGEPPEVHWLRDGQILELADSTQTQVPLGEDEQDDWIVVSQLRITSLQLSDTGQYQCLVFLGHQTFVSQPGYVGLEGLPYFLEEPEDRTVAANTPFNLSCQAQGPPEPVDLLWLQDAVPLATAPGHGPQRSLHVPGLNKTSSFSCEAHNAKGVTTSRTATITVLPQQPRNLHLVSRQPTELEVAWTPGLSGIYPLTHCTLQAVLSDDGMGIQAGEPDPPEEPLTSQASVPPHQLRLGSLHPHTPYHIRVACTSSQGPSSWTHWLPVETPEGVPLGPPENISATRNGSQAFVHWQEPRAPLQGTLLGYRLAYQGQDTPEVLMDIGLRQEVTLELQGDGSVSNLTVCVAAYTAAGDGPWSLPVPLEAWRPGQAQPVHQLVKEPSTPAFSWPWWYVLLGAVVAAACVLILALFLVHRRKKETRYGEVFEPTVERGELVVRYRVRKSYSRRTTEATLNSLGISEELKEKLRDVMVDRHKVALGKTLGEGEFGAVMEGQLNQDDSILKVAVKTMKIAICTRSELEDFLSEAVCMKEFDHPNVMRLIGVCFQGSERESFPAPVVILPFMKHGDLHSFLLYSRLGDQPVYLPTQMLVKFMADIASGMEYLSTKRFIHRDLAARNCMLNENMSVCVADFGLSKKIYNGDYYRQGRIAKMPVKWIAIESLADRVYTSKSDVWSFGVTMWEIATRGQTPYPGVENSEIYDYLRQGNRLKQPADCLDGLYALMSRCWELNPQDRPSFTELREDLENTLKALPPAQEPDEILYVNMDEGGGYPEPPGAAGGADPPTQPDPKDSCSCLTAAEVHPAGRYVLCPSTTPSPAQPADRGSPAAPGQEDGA
Method: The compounds of the invention were tested in the following assay for their ability to inhibit Axl activity.
Phospho-Akt in-Cell Western Assay
Starvation medium: For Axl stimulation: 0.5% FCS (fetal calf serum) in DMEM, plus Axl/Fc (extracellular domain of AXL fused to immunoglobulin Fc region) (R&D, 154-AL) 500 ng/mL.
Axl antibody cross-linking: • 1st: Mouse anti-Axl (R&D, MAB 154). • 2nd: Biotin-SP-conjugated AffiniPure goat anti-mouse IgG (H+L) (Jackson ImmunoResearch #115-065-003).
Primary antibody: Rabbit anti-human Phospho-Akt antibody (Cell Signaling 9271): 1×250 diluted in blocking buffer.
Secondary antibody: HRP (horse radish peroxidase)-conjugated Goat anti-Rabbit secondary, stock solution: Jackson lmmunoResearch (Goat anti-Rabbit HRP, #111-035-144) 1:1 diluted in glycerol, store at −20° C. The working solution: 1×2000 dilution of stock in blocking buffer.
A 96 well TC (tissue culture treated) plate was coated with 10 μg/mL poly-L-Lysine at 37° C. for 30 min, washed twice with PBS, and air-dried for 5 minutes before cells were added. Hela cells were seeded at 10,000 cells/well and the cells were starved in 100 μL starvation medium containing Axl/Fc for 24 hrs.
The cells were pre-treated with test compounds by adding 100 μL of 2× test compound to the starvation medium on the cells. The cells were incubated at 37° C. for 1 hr before stimulation.
The cells were stimulated by Axl-antibody cross-linking as follows: A 5× 1st/2nd Axl antibody mixture was made (37.5 μg/mL 1st/100 μg/mL 2nd) in starvation medium and nutated at 4° C. with thorough mixing for 1-2 hours for clustering. The resulting mix was warmed to 37° C. 50 μL of 5× Axl 1st/2nd of antibody cluster was added to the cells and the cells were incubated at 37° C. for 5 min.
After 5 minutes stimulation, the plate was flicked to remove medium and the plate was tapped onto paper towels. Formaldehyde (4.0% in PBS, 100 μL) was added to fix the cells and the cells were incubated at ambient temperature for 20 min without shaking.
The cells were washed with a plate washer buffer to remove the formaldehyde solution. The plate was flicked to remove excess wash buffer and tapped onto paper towels. Quenching buffer (100 μL) was added to each well and the cells were incubated at ambient temperature for 20 minutes without shaking.
The cells were washed with a plate washer buffer to remove the quenching buffer. Blocking buffer (100 μL) was added and the cells were incubated at ambient temperature for at least an hour with gentle shaking.
The cells were washed with a plate washer buffer and diluted primary antibody (50 μL) was added to each well (blocking buffer was added to the negative control wells instead). The plates were incubated overnight at 4° C. with gentle shaking.
The wash buffer was removed, diluted secondary antibody (100 μL) was added, and the cells were incubated at ambient temperature for 1 hour with gentle shaking. During the incubation, the chemiluminescent reagent was brought to ambient temperature.
The secondary antibody was removed by washing the cells 1× with wash buffer, 1× with PBS by plate washer. The PBS was removed from the plate and the chemiluminescent reagent (80 μL: 40 μL A and 40 μL B) was added to each well at ambient temperature.
The resulting chemiluminescence was read with a Luminomitor within 10 minutes to minimize changes in signal intensity. After reading the chemiluminescence, the cells were washed 1× with wash buffer and 1× with PBS by plate washer. The plate was tapped onto paper towels to remove excess liquid from wells and air-dried at ambient temperature for 5 minutes.
Crystal Violet working solution (60 μL) was added to each well and the cells were incubated at ambient temperature for 30 min. The crystal violet solution was removed, and the wells were rinsed with PBS, then washed 3× with PBS (200 μL) for 5 minutes each.
5% SDS solution (70 μL) was added to each well and the cells were incubated on a shaker for 30 min at ambient temperature. […]

Syk kinase = Syk kinase (Homo sapiens, UniProt P43405); experiment: cell-based Syk assay; conditions: read-out: IC50, inhibition of Syk kinase
[1] = test system: JAK kinases (JAK1 and JAK3); experiment: JAK inhibition: IL-4-stimulated CD23 upregulation in human Ramos B-cells, FACS; type: cell-based; conditions: IL-4 stimulated Ramos B-cells, read-out: IC50, inhibition of JAK kinases in cellular assay
Method: JAK inhibition was tested in human Ramos B-cells activated with IL-4. Twenty to 24 hours post stimulation, the cells are stained for upregulation of CD23 and analyzed by FACS. Stimulation of the B-cells with IL-4 leads to the activation of the JAK/STAT pathway through phosphorylation of the JAK kinase JAK1 and JAK3, which in turn phosphorylate and activate transcription of factor […].
For the assay, human Ramos B-cells (ATCC, Catalog No. CRL-1596) are cultured in RPMI 1640 medium (Cellgro, Catalog No. 10-040-CM) containing 10% fetal bovine serum (JRH, Catalog No. 12106-500M) according to the propagation protocol supplied with the cells, and maintained at a density of approximately 3.5×10^5 cells/ml. The day before the assay, the cells are diluted to 3.5×10^5 cells/ml to insure they are in the logarithmic growth phase. The cells are spun down, and suspended in RPMI 1640 medium containing 5% fetal bovine serum to a density of 3.5×10^4 cells/ml and aliquots dispensed into a 96-well tissue culture plate. Cells are incubated with test compound (dissolved in DMSO) or DMSO (control) for 1 hr at 37° C. and then stimulated with IL-4 (Pepotech, Catalog No. 200-04) for 20-24 hours (final concentration is 50 Units/ml). Cells are then spun down, stained with anti-CD23-PE antibody (BD Pharmigen, Catalog No. 555711) and analyzed by FACS.

IC50 (Axl kinase)	IC50 (Syk kinase)	IC50 [1]	IC50 ([1]; unit printed MM)	SMILES
> 10 µM	> 10 µM			CONC(=O)Cc1ccc(Nc2nc(NC3C4C=CC(C4)C3C(N)=O)c3nc[nH]c3n2)cc1 (racemic) [Compound 228, Racemic-(2-exo,3-exo-)-N6-(3-aminocarbonylbicyclo [2.2.1]hept-5-en-2-yl)-N2-[4-(N-methoxy)-aminocarbonyl-inethylphenyl]-1H-purine-2,6-diamine]
	< 10 µM	< 5 µM		CN(C)C(=O)C1C2C=CC(C2)C1Nc1nc(Nc2ccc(N3CCCCC3)cc2)nc2[nH]cnc12 (racemic) [Compound 145]
> 10 µM	> 10 µM	< 10 µM		NC(=O)C1C2CC(C1Nc1nc(Nc3ccc(N4CCOCC4)cc3)nc3[nH]ccc13)C1ON=C(c3ccccc3)C21 (racemic) [Compound 219, Racemic-(5-exo,6-exo)-N4-(4,7-methano-1,2-benzisoxazol-3a,4,5,6,7,7a-hexahydro-3-phenyl-5-aminocarbonyl-6-yl)-N2-[4-(4-morpholinyl)phenyl]-1H-pyrrolo[2,3-d]pyrimidine-2,4-diamine]
> 10 µM	> 10 µM	< 5 µM		COc1ccc(Nc2nc(NC3C4C=CC(C4)C3C(N)=O)c3scc(C)c3n2)cc1 (racemic) [Compound 237, Racemic-(2-exo,3-exo-)-7-methyl-N4-(3-aminocarbonylbicyclo [2.2.1]hept-5-en-2-yl)-N2-[4-methoxyphenyl]-thieno[3,2-d]pyrimidine-2,4-diamine]
	< 10 µM	< 5 µM		Cc1cccc(Nc2nc(NC3C4C=CC(C4)C3C(=O)N(C)C)c3nc[nH]c3n2)c1 (racemic) [Compound 141]
	< 10 µM	< 5 µM		CN(C)C(=O)C1C2C=CC(C2)C1Nc1nc(Nc2ccc(Cc3ccncc3)cc2)nc2[nH]cnc12 (racemic) [Compound 146]
< 10 µM	< 5 µM	< 5 µM		COc1cccc(Nc2nc(NC3C4CCC(C4)C3C(=O)NN)c3cc[nH]c3n2)c1 (racemic) [Compound 231, Racemic-(2-exo,3-exo)-N4-(3-hydrazidebicyclo[2.2. 1]hept-2-yl)-N2-(3-methoxyphenyl)-1H-pyrrolo[2,3-d]pyrimidine-2,4-diamine]
	< 10 µM			NC(=O)C1C2C=CC(C2)C1Nc1nc(Nc2ccc(OCCN3CCCC3)c(F)c2)nc2[nH]cnc12 (racemic) [Compound 236, Racemic-(2-exo,3-exo-)-N6-(3-aminocarbonylbicyclo [2.2.1]hept-5-en-2-yl)-N2-[3-fluoro-4-[2-(1-pyrrolidinyl)ethoxy]phenyl]-1H-purine-2,6-diamine]
	< 10 µM	< 5 µM		CSc1cccc(Nc2nc(NC3C4C=CC(C4)C3C(=O)N(C)C)c3nc[nH]c3n2)c1 (racemic) [Compound 143]
	< 10 µM	> 10 µM		COc1cccc(Nc2nc(NC3C4C=CC(C4)C3C(=O)N(C)C)c3nc[nH]c3n2)c1 (racemic) [Compound 142]
	< 5 µM			NC(=O)C1C2C=CC(C2)C1Nc1nc(Nc2ccc(OCCN3CCCC3)c(Cl)c2)nc2[nH]cnc12 (racemic) [Compound 235, Racemic-(2-exo,3-exo-)-N6-(3-aminocarbonylbicyclo [2.2.1]hept-5-en-2-yl)-N2-[3-chloro-4-[2-(1-pyrrolidinyl)ethoxy]phenyl]-1H-purine-2,6-diamine]
> 10 µM	< 10 µM			CONC(=O)Cc1ccc(Nc2nc(NC3C4C=CC(C4)C3C(N)=O)c3cc[nH]c3n2)cc1 (racemic) [Compound 227, Racemic-(2-exo,3-exo)-N4-(3-aminocarbonylbicyclo [2.2.1]hept-5-en-2-yl)-N2-[4-(N-methoxy)-aminocarbonyl-methylphenyl]-1H-pyrrolo[2,3-d]pyrimidine-2,4-diamine]
> 10 µM	< 5 µM			CONC(=O)Cc1cccc(Nc2nc(NC3C4C=CC(C4)C3C(N)=O)c3nc[nH]c3n2)c1 (racemic) [Compound 230, Racemic-(2-exo,3-exo-)-N6-(3-aminocarbonylbicyclo [2.2.1]hept-5-en-2-yl)-N2-[3-(N-methoxy)-aminocarbonyl-methylphenyl]-1H-purine-2,6-diamine]
	> 10 µM	< 5 µM		CC(C)Oc1cccc(Nc2nc(NC3C4C=CC(C4)C3C(=O)N(C)C)c3nc[nH]c3n2)c1 (racemic) [Compound 140]
	< 10 µM	< 5 µM		CN(C)C(=O)C1C2C=CC(C2)C1Nc1nc(Nc2cccc(S(N)(=O)=O)c2)nc2[nH]cnc12 (racemic) [Compound 144]
	< 10 µM		< 10 µM	CNC(=O)COc1cccc(Nc2nc(N[C@H]3[C@@H](C(N)=O)[C@@H]4C=C[C@H]3C4)c3nc[nH]c3n2)c1 [Compound 110]
< 10 µM		< 5 µM		Cc1csc2c(NC3C4C=CC(C4)C3C(N)=O)nc(Nc3ccc(OCCN4CCCC4)cc3)nc12 (racemic) [Compound 240, Racemic-(2-exo,3-exo-)-7-methyl-N4-(3-aminocarbonylbicyclo [2.2.1]hept-5-en-2-yl)-N2-[4-[2-(1-pyrrolidinyl)ethoxy]phenyl]-thieno[3,2-d]pyrimidine-2,4-diamine]
